In US20230322721A1 (OSLO UNIVERSITETSSYKEHUS HF, priority 2020, published 2023):
Counter-ions that a name gives are not always drawn. Like-named read-outs stand apart in the source and are kept apart here.

Assays:
TNKS2 = TNKS2 (Homo sapiens (Human), UniProt Q9H2K2); experiment: Biochemical IC50 TNKS2
Source text: (§1) XLfit (idbs) was used to determine the IC50-values in inhibition experiments. The following formula was chosen to fit the data points (Langmuir Binding Isotherm): fit=((A+(B*x))+(((C−B)*(1−exp((−1*D)*x)))/D)), res=(y−fit).

HEK293 = experiment: Cellular IC50 HEK293; type: cell-based
Source text: as §1

[1] = Metabolic stability in mouse liver microsomes (MLM); type: in vitro ADME; settings: for microsomal CLint at 1 μM / half-life at 1 μM: pH 7.4, 1 μM compound; for half-life at 1 μM: read-out: MLM t1/2 average
Description: (§2) Metabolic stability was investigated in mouse liver microsomes (MLM) and in human liver microsomes (HLM): […] Incubations were performed at 37° C. Control incubations with reference substances were included for each experiment. […] After the last time point, the quench plates were mixed thoroughly and centrifuged for 15 minutes at 3700 rpm and 10° C. (Eppendorf 5804R). The supernatant was transferred to new 96 well plates and subjected to LCMS analysis. The disappearance of the parent compound was determined.

[2] = Metabolic stability in human liver microsomes (HLM); type: in vitro ADME; settings: for microsomal CLint at 1 μM / half-life at 1 μM: pH 7.4, 1 μM compound; for half-life at 1 μM: read-out: HLM t1/2 average
Description: as §2

[3] = Homo sapiens, HEK293, read-out: Cellular IC50 HEK 293
[4] = Homo sapiens, HEK293, read-out: Cellular IC50 HEK293
[5] = read-out: Biochemical IC50 TNKS2
[6] = Homo sapiens, HEK293; read-out: Cellular IC50 HEK293
[7] = 0.5 mg/ml microsomal protein, 37° C.
[8] = 1 μM compound, 0.5 mg/ml microsomal protein, 37° C.
[9] = Homo sapiens, HEK293; read-out: Cellular IC50 HEK 293

Chain of TNKS2 (Q9H2K2 whole entry): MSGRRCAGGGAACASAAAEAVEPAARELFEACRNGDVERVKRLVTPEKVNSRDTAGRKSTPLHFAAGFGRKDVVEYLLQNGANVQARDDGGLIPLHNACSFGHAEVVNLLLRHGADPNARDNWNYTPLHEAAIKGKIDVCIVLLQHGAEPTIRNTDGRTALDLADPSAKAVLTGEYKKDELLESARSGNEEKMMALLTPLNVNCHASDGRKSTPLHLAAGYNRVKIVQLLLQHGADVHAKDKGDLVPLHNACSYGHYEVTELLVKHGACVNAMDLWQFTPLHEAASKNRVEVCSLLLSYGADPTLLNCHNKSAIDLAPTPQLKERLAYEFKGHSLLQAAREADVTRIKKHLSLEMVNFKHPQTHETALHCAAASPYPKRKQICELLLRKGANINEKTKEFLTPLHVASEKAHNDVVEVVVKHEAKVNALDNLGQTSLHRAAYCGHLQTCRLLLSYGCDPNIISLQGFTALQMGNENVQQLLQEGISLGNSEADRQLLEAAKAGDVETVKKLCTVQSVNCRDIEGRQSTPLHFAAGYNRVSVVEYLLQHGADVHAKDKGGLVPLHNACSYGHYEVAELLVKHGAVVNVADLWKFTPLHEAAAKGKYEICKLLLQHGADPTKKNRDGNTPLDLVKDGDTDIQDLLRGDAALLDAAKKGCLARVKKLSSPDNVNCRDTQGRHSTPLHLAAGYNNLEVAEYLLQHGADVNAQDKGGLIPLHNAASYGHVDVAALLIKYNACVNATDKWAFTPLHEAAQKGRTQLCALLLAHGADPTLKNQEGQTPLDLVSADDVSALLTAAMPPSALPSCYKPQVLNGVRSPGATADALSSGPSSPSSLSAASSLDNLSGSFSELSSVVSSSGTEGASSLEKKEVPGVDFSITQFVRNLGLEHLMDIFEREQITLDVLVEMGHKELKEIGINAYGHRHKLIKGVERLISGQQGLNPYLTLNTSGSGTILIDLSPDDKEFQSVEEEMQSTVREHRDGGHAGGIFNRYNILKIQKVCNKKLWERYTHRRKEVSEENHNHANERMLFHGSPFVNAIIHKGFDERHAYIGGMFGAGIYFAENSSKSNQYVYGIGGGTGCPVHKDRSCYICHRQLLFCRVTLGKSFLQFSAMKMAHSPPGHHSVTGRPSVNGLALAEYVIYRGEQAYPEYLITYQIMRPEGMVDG

IC50 (TNKS2; [5]) [nM] | microsomal CLint at 1 μM [1, 7] [µL/min/mg] | half-life at 1 μM [1, 7] [h] | microsomal CLint at 1 μM [2, 7] [µL/min/mg] | half-life at 1 μM [2, 7] [h] | Compound | IC50 (HEK293; [4]) [nM] | IC50 (HEK293; [6]) [nM] | IC50 (HEK293; [9]) [nM] | other results
 |  |  |  |  | CCOc1ccc(-c2nnc([C@H]3C[C@H](NC(=O)c4cccc5c4ccc[n+]5[O-])C3)n2-c2ccccc2F)nc1 [Example 25, 5-((trans-3-(5-(5-ethoxypyridin-2-yl)-4-(2-fluorophenyl)-4H-1,2,4-triazol-3-yl)cyclobutyl)carbamoyl)quinoline 1-oxide] | 9960 |  |  | IC50 (TNKS2): 978 nM; IC50 (HEK293; [3]): 10000 nM
71 | 9 | > 1.5 | 5 | > 1.5 | CCOc1ccc(-c2nnc([C@H]3C[C@H](NC(=O)c4cccc5nc(O)c(O)nc45)C3)n2-c2ccccc2F)nc1 [Example 3, N-((1R,3r)-3-(5-(5-ethoxypyridin-2-yl)-4-(2-fluorophenyl)-4H-1,2,4-triazol-3-yl)cyclobutyl)-2,3-dihydroxyquinoxaline-5-carboxamide] |  | 1250 |  | 
 |  |  |  |  | CCOc1ccc(-c2nnc([C@H]3C[C@H](NC(=O)c4cc[n+]([O-])c5cc(OC)cnc45)C3)n2-c2ccccc2F)nc1 [Example 28, 4-((trans-3-(5-(5-ethoxypyridin-2-yl)-4-(2-fluorophenyl)-4H-1,2,4-triazol-3-yl)cyclobutyl)carbamoyl)-7-methoxy-1,5-naphthyridine 1-oxide] | 1.2 |  |  | IC50 (TNKS2): 3.5 nM; IC50 (HEK293; [3]): 1.2 nM
 |  |  |  |  | CCOc1ccc(-c2nnc([C@H]3C[C@H](NC(=O)c4cc[n+]([O-])c5cc(O)cnc45)C3)n2-c2ccccc2F)nc1 [Example 27, 4-((trans-3-(5-(5-ethoxypyridin-2-yl)-4-(2-fluorophenyl)-4H-1,2,4-triazol-3-yl)cyclobutyl)carbamoyl)-7-hydroxy-1,5-naphthyridine 1-oxide] | 22 |  |  | IC50 (TNKS2): 1.7 nM; IC50 (HEK293; [3]): 22 nM
1.3 |  |  |  |  | CCOc1ccc(-c2nnc([C@H]3C[C@H](NC(=O)c4cccc5cc(O)cnc45)C3)n2-c2ccccc2F)nc1 [Example 23, N-(trans-3-(5-(5-ethoxypyridin-2-yl)-4-(2-fluorophenyl)-4H-1,2,4-triazol-3-yl)cyclobutyl)-3-hydroxyquinoline-8-carboxamide] |  | 3.6 | 3.6 | 
7.2 |  |  |  |  | CCOc1ccc(-c2nnc([C@H]3C[C@H](NC(=O)c4cccc(N)n4)C3)n2-c2ccccc2F)nc1 [Example 20, 6-amino-N-(trans-3-(5-(5-ethoxypyridin-2-yl)-4-(2-fluorophenyl)-4H-1,2,4-triazol-3-yl)cyclobutyl)picolinamide] |  | 27 | 27 | 
36 | 72 | 0.317 | 45 | 0.517 | CCOc1ccc(-c2nnc([C@H]3C[C@H](NC(=O)c4cccc5ncc(O)nc45)C3)n2-c2ccccc2F)nc1 [Example 1, N-((1R,3r)-3-(5-(5-ethoxypyridin-2-yl)-4-(2-fluorophenyl)-4H-1,2,4-triazol-3-yl)cyclobutyl)-3-hydroxyquinoxaline-5-carboxamide] |  | 220 |  | 
12.5 |  |  |  |  | CCOc1ccc(-c2nnc([C@H]3C[C@H](NC(=O)c4ccc5cccc(O)c5n4)C3)n2-c2ccccc2F)nc1 [Example 21, N-(trans-3-(5-(5-ethoxypyridin-2-yl)-4-(2-fluorophenyl)-4H-1,2,4-triazol-3-yl)cyclobutyl)-8-hydroxyquinoline-2-carboxamide] |  | 72 | 72 | 
 |  |  |  |  | CCOc1ccc(-c2nnc([C@H]3C[C@H](NC(=O)c4ccc[n+]([O-])c4)C3)n2-c2ccccc2F)nc1 [Example 18, 3-((trans-3-(5-(5-ethoxypyridin-2-yl)-4-(2-fluorophenyl)-4H-1,2,4-triazol-3-yl)cyclobutyl)carbamoyl)pyridine 1-oxide] |  | > 10000 | > 10000 | 
2.1 |  |  |  |  | CCOc1ccc(-c2nnc([C@H]3C[C@H](NC(=O)c4cccc5c(N(C)C)ccnc45)C3)n2-c2ccccc2F)nc1 [Example 22] |  | 15 | 15 | 
1.5 | 7 | > 1.5 | 17 | 1.32 | CCOc1ccc(-c2nnc([C@H]3C[C@H](NC(=O)c4cccc5nc(O)cnc45)C3)n2-c2ccccc2F)nc1 [Example 2, Dihydrochloride] |  | 1.1 |  | 
 |  |  |  |  | CCOc1ccc(-c2nnc([C@H]3C[C@H](NC(=O)c4cccc5c(O)ccnc45)C3)n2-c2ccccc2F)nc1 [Example 14, N-(trans-3-(5-(5-ethoxypyridin-2-yl)-4-(2-fluorophenyl)-4H-1,2,4-triazol-3-yl)cyclobutyl)-4-hydroxyquinoline-8-carboxamide] |  | 8.5 | 8.5 | 

Compound | IC50 (TNKS2; [5]) [nM] | microsomal CLint at 1 μM [1, 7] [µL/min/mg] | half-life at 1 μM [1, 7] [h] | microsomal CLint at 1 μM [2, 7] [µL/min/mg] | half-life at 1 μM [2, 7] [h] | IC50 (HEK293; [4]) [nM] | IC50 (HEK293; [6]) [nM] | IC50 (HEK293; [9]) [nM] | other results
CCOc1ccc(-c2nnc([C@H]3C[C@H](NC(=O)c4cccc5nccnc45)C3)n2-c2ccccc2F)[n+]([O-])c1 [Example 5, 5-ethoxy-2-(4-(2-fluorophenyl)-5-((1r,3R)-3-(quinoxaline-5-carboxamido)cyclobutyl)-4H-1,2,4-triazol-3-yl)pyridine 1-oxide] | 1.3 |  |  |  |  |  |  |  | IC50 (HEK293; HEK293; read-out: Cellular IC50 HEK293): 0.75 nM; MLM Clint average [1, 8]: 15 μl/min/mg protein; MLM t1/2 average [1, 8]: >1.5 h; HLM Clint average [2, 8]: 8 μl/min/mg protein; HLM t1/2 average [2, 8]: >1.5 h
CCOc1ccc(-c2nnc([C@H]3C[C@H](NC(=O)c4cc[n+]([O-])c5cccnc45)C3)n2-c2ccccc2F)nc1 [Example 26, 4-((trans-3-(5-(5-ethoxypyridin-2-yl)-4-(2-fluorophenyl)-4H-1,2,4-triazol-3-yl)cyclobutyl)carbamoyl)-1,5-naphthyridine 1-oxide] | 2.6 |  |  |  |  |  | 1.4 | 1.4 | 
CCOc1ccc(-c2nnc([C@H]3C[C@H](NC(=O)c4cccc5c4ncc[n+]5[O-])C3)n2-c2ccccc2F)nc1 [Example 4, 5-(((1R,3r)-3-(5-(5-ethoxypyridin-2-yl)-4-(2-fluorophenyl)-4H-1,2,4-triazol-3-yl)cyclobutyl)carbamoyl)quinoxaline 1-oxide] | 1.6 | 19 | 1.18 | 5 | > 1.5 | 2.5 |  |  | 
CCOc1ccc(-c2nnc([C@H]3C[C@H](NC(=O)c4cccc5nccnc45)C3)n2-c2ccccc2F)nc1 [Example 154 of WO 2019/243822, reference compound] | 1.8 | 81 | 0.283 | 40 | 0.583 | 0.53 |  |  | clearance in MLM (in words) [1]: high clearance; clearance in HLM (in words) [2]: moderate clearance
